Marks after values point to notes of the source that are not given here.
Experiment: Tissue distribution of radioactivity by quantitative whole body autoradiography (QWBA) after single intravenous [3H]-AMTX-100
Format: in vivo, rat
Protocol: The formulation was administered directly into a tail vein. The dose volume (2.5 mL/kg) was used to achieve a dose level of 5 mg/kg and radioactive dose levels of 100 μCi/kg (Phase 1) and 500 μCi/kg (Phase 2). The dose formulation was stirred continuously throughout the dosing procedure.
Quantitative Whole Body Autoradiography (QWBA). The frozen carcasses were subjected to QWBA. Sections were presented at up to five different levels of the rat body to include between 30 and 40 tissues (subject to presence of sufficient radioactivity).
The freeze-dried whole body autoradiography sections were exposed to phosphor-storage imaging plates and incubated at ambient temperature in the dark for seven days. Calibrated autoradiographic blood standards containing known amounts of radioactivity (nCi/g) were included in each exposure.
Distribution of radioactivity in tissues and [^3H]-blood standards (prepared and validated at Pharmaron UK Ltd.) was determined and quantified using a Fuji FLA-5100 fluorescent image analyzing system and associated Tina (version 2.09) and SeeScan (version 2.0) software. For each exposure, a standard curve was produced in SeeScan using the data from the autoradiographic blood standards from which tissue concentrations of radioactivity (μg equivalents/g) were determined.
A representative background radioactivity measurement for each exposure plate used was also taken. The number of measurements for each particular tissue was determined by the number of levels it appeared in. Multiple measurements were therefore performed for larger tissues that appeared in more than one level (e.g. liver), with only one measurement obtained for small tissues (e.g. thyroid gland). The limit of accurate quantification was considered to be the lowest [^3H]-blood standard visible.
Three of the carcasses obtained from the eight male Sprague Dawley rats subjected to whole blood collection and analysis after each receiving a single intravenous administration of [^3H]-AMTX-100, were selected for QWBA analysis at each of the following time points: 10 minutes and 2 and 12 hours post-dose.
Each carcass was snap frozen by immersion in a hexane/dry ice mixture immediately after collection and was then stored at approximately −20° C., pending analysis by QWBA.

[1] = single intravenous, 5 mg/kg, rat, 10 min
[2] = single intravenous, 5 mg/kg, rat, 2 hr
[3] = single intravenous, 5 mg/kg, rat, 12 hr

CSCC[C@@H]1NC(=O)[C@H](CC(C)C)NC(=O)[C@H](CCCCN)NC(=O)[C@H](CCC(N)=O)CC(=O)[C@H](CCCNC(=N)N)NC(=O)[C@H](CCCCN)NC(=O)[C@H](CCCNC(=N)N)NC(=O)[C@H](CCC(N)=O)NC(=O)[C@H](C(C)C)NC(=O)[C@@H](NC(=O)[C@@H]2CCCN2C(=O)[C@H](C)NC(=O)[C@H](CC(C)C)NC(=O)[C@H](CC(C)C)NC(=O)[C@H](C)NC(=O)[C@H](CC(C)C)NC(=O)[C@H](CC(C)C)NC(=O)[C@@H](NC(=O)[C@H](C)NC(=O)[C@@H]2CCCN2C(=O)[C@H](CC(C)C)NC(=O)[C@H](CC(C)C)NC(=O)[C@H](C)NC(=O)[C@@H](NC(=O)[C@H](C)NC(=O)[C@H](C)N)C(C)C)C(C)C)CSSC[C@@H](C(=O)O)NC(=O)[C@@H]2CCCN2C1=O [[^3H]-AMTX-100]
Radioactivity localization in heart and other muscle cells (rats): lack of radioactivity localization in heart and other muscle cells | Organ localization of radioactivity (rats, spleen, lung, liver, lymph nodes, kidney, adrenal gland, bone marrow, pancreas, small intestine, etc.): localized to organs where immune cells are known to reside and traffic through | Concentration of radioactivity in Adrenal gland [1]: 9.93 μg equivalents/g | Concentration of radioactivity in Blood: residual cardiac [1]: 2.89 μg equivalents/g | Concentration of radioactivity in Bone [1]: BLQ (Below lower limit of accurate quantification (<0.36 μg equivalents/g)) | Concentration of radioactivity in Bone marror [1]: 4.44 μg equivalents/g | Concentration of radioactivity in Brain [1]: BLQ (Below lower limit of accurate quantification (<0.36 μg equivalents/g)) | Concentration of radioactivity in Caecum contents [1]: BLQ (Below lower limit of accurate quantification (<0.36 μg equivalents/g)) | Concentration of radioactivity in Caecum mucosa [1]: 0.82 μg equivalents/g | Concentration of radioactivity in Choroid plexus [1]: 0.71 μg equivalents/g | Concentration of radioactivity in Epididymis [1]: 0.44 μg equivalents/g | Concentration of radioactivity in Ex-orbital lachrymal gland [1]: 0.71 μg equivalents/g | Concentration of radioactivity in Eye: lens [1]: BLQ (Below lower limit of accurate quantification (<0.36 μg equivalents/g)) | Concentration of radioactivity in Eye: whole [1]: BLQ (Below lower limit of accurate quantification (<0.36 μg equivalents/g)) | Concentration of radioactivity in Fat: brown [1]: 0.59 μg equivalents/g | Concentration of radioactivity in Fat: white [1]: 0.38 μg equivalents/g | Concentration of radioactivity in Forestomach mucosa [1]: 0.52 μg equivalents/g | Concentration of radioactivity in Glandular stomach mucosa [1]: 1.13 μg equivalents/g | Concentration of radioactivity in Harderian gland [1]: 0.46 μg equivalents/g | Concentration of radioactivity in Kidney: cortex [1]: 16.30 μg equivalents/g | Concentration of radioactivity in Kidney: medulla [1]: 10.10 μg equivalents/g | Concentration of radioactivity in Kidney: whole [1]: 13.30 μg equivalents/g | Concentration of radioactivity in Large intestine contents [1]: BLQ (Below lower limit of accurate quantification (<0.36 μg equivalents/g)) | Concentration of radioactivity in Large intestine mucosa [1]: 0.80 μg equivalents/g | Concentration of radioactivity in Liver [1]: 58.60 μg equivalents/g | Concentration of radioactivity in Lung [1]: 96.70 μg equivalents/g | Concentration of radioactivity in Lymph node [1]: 1.13 μg equivalents/g | Concentration of radioactivity in Muscle [1]: 0.52 μg equivalents/g | Concentration of radioactivity in Myocardium [1]: 1.25 μg equivalents/g | Concentration of radioactivity in Pancreas [1]: 1.71 μg equivalents/g | Concentration of radioactivity in Pituitary gland [1]: 2.21 μg equivalents/g | Concentration of radioactivity in Prostate gland [1]: 0.41 μg equivalents/g | Concentration of radioactivity in Salivary gland [1]: 1.09 μg equivalents/g | Concentration of radioactivity in Skin [1]: 0.48 μg equivalents/g | Concentration of radioactivity in Small intestine contents [1]: BLQ (Below lower limit of accurate quantification (<0.36 μg equivalents/g)) | Concentration of radioactivity in Small intestine mucosa [1]: 0.54 μg equivalents/g | Concentration of radioactivity in Spinal cord [1]: BLQ (Below lower limit of accurate quantification (<0.36 μg equivalents/g)) | Concentration of radioactivity in Spleen: red pulp [1]: 15.40 μg equivalents/g | Concentration of radioactivity in Spleen: white pulp [1]: 8.70 μg equivalents/g | Concentration of radioactivity in Spleen: whole [1]: 55.80 μg equivalents/g | Concentration of radioactivity in Stomach contents [1]: BLQ (Below lower limit of accurate quantification (<0.36 μg equivalents/g)) | Concentration of radioactivity in Testis [1]: BLQ (Below lower limit of accurate quantification (<0.36 μg equivalents/g)) | Concentration of radioactivity in Thymus [1]: 0.45 μg equivalents/g | Concentration of radioactivity in Thyroid gland [1]: 1.66 μg equivalents/g | Concentration of radioactivity in Urinary bladder contents [1]: 67.50 μg equivalents/g | Concentration of radioactivity in Urinary bladder wall [1]: 0.69 μg equivalents/g | Concentration of radioactivity in Adrenal gland [2]: 5.33 μg equivalents/g | Concentration of radioactivity in Blood: residual cardiac [2]: 0.82 μg equivalents/g | Concentration of radioactivity in Bone [2]: BLQ (Below lower limit of accurate quantification (<0.36 μg equivalents/g)) | Concentration of radioactivity in Bone marror [2]: 4.40 μg equivalents/g | Concentration of radioactivity in Brain [2]: BLQ (Below lower limit of accurate quantification (<0.36 μg equivalents/g)) | Concentration of radioactivity in Caecum contents [2]: BLQ (Below lower limit of accurate quantification (<0.36 μg equivalents/g)) | Concentration of radioactivity in Caecum mucosa [2]: 0.76 μg equivalents/g | Concentration of radioactivity in Epididymis [2]: 0.67 μg equivalents/g | Concentration of radioactivity in Ex-orbital lachrymal gland [2]: 0.46 μg equivalents/g | Concentration of radioactivity in Eye: lens [2]: BLQ (Below lower limit of accurate quantification (<0.36 μg equivalents/g)) | Concentration of radioactivity in Eye: whole [2]: BLQ (Below lower limit of accurate quantification (<0.36 μg equivalents/g)) | Concentration of radioactivity in Fat: brown [2]: BLQ (Below lower limit of accurate quantification (<0.36 μg equivalents/g)) | Concentration of radioactivity in Fat: white [2]: BLQ (Below lower limit of accurate quantification (<0.36 μg equivalents/g)) | Concentration of radioactivity in Forestomach mucosa [2]: 0.57 μg equivalents/g | Concentration of radioactivity in Glandular stomach mucosa [2]: 0.81 μg equivalents/g | Concentration of radioactivity in Harderian gland [2]: 0.37 μg equivalents/g | Concentration of radioactivity in Kidney: cortex [2]: 9.59 μg equivalents/g | Concentration of radioactivity in Kidney: medulla [2]: 4.47 μg equivalents/g | Concentration of radioactivity in Kidney: whole [2]: 7.35 μg equivalents/g | Concentration of radioactivity in Large intestine contents [2]: BLQ (Below lower limit of accurate quantification (<0.36 μg equivalents/g)) | Concentration of radioactivity in Large intestine mucosa [2]: 0.63 μg equivalents/g | Concentration of radioactivity in Liver [2]: 31.60 μg equivalents/g | Concentration of radioactivity in Lung [2]: 31.90 μg equivalents/g | Concentration of radioactivity in Lymph node [2]: 0.83 μg equivalents/g | Concentration of radioactivity in Muscle [2]: BLQ (Below lower limit of accurate quantification (<0.36 μg equivalents/g)) | Concentration of radioactivity in Myocardium [2]: 0.53 μg equivalents/g | Concentration of radioactivity in Pancreas [2]: 1.69 μg equivalents/g | Concentration of radioactivity in Pituitary gland [2]: 1.58 μg equivalents/g | Concentration of radioactivity in Prostate gland [2]: 0.83 μg equivalents/g | Concentration of radioactivity in Salivary gland [2]: 0.80 μg equivalents/g | Concentration of radioactivity in Skin [2]: 0.39 μg equivalents/g | Concentration of radioactivity in Small intestine contents [2]: 1.23 μg equivalents/g | Concentration of radioactivity in Small intestine mucosa [2]: 0.89 μg equivalents/g | Concentration of radioactivity in Spinal cord [2]: BLQ (Below lower limit of accurate quantification (<0.36 μg equivalents/g)) | Concentration of radioactivity in Spleen: red pulp [2]: 11.90 μg equivalents/g | Concentration of radioactivity in Spleen: white pulp [2]: 2.92 μg equivalents/g | Concentration of radioactivity in Spleen: whole [2]: 41.80 μg equivalents/g | Concentration of radioactivity in Stomach contents [2]: BLQ (Below lower limit of accurate quantification (<0.36 μg equivalents/g)) | Concentration of radioactivity in Testis [2]: 0.37 μg equivalents/g | Concentration of radioactivity in Thymus [2]: 0.68 μg equivalents/g | Concentration of radioactivity in Thyroid gland [2]: 1.29 μg equivalents/g | Concentration of radioactivity in Urinary bladder wall [2]: 1.22 μg equivalents/g | Concentration of radioactivity in Urinary bladder contents (single intravenous, 5 mg/kg, rat, 2 hr, above upper limit of accurate quantification (>153 μg equivalents/g)): 219.00* μg equivalents/g | Concentration of radioactivity in Adrenal gland [3]: 0.44 μg equivalents/g | Concentration of radioactivity in Blood: residual cardiac [3]: BLQ (Below lower limit of accurate quantification (<0.36 μg equivalents/g)) | Concentration of radioactivity in Bone marror [3]: 2.18 μg equivalents/g | Concentration of radioactivity in Caecum contents [3]: BLQ (Below lower limit of accurate quantification (<0.36 μg equivalents/g)) | Concentration of radioactivity in Kidney: cortex [3]: 0.61 μg equivalents/g | Concentration of radioactivity in Kidney: medulla [3]: 0.45 μg equivalents/g | Concentration of radioactivity in Kidney: whole [3]: 0.54 μg equivalents/g | Concentration of radioactivity in Large intestine contents [3]: 0.36 μg equivalents/g | Concentration of radioactivity in Large intestine mucosa [3]: BLQ (Below lower limit of accurate quantification (<0.36 μg equivalents/g)) | Concentration of radioactivity in Liver [3]: 8.77 μg equivalents/g | Concentration of radioactivity in Lung [3]: 30.10 μg equivalents/g | Concentration of radioactivity in Muscle [3]: BLQ (Below lower limit of accurate quantification (<0.36 μg equivalents/g)) | Concentration of radioactivity in Pancreas [3]: BLQ (Below lower limit of accurate quantification (<0.36 μg equivalents/g)) | Concentration of radioactivity in Small intestine contents [3]: 0.47 μg equivalents/g | Concentration of radioactivity in Small intestine mucosa [3]: BLQ (Below lower limit of accurate quantification (<0.36 μg equivalents/g)) | Concentration of radioactivity in Spleen: red pulp [3]: 6.89 μg equivalents/g | Concentration of radioactivity in Spleen: white pulp [3]: 0.89 μg equivalents/g | Concentration of radioactivity in Spleen: whole [3]: 11.90 μg equivalents/g | Concentration of radioactivity in Testis [3]: BLQ (Below lower limit of accurate quantification (<0.36 μg equivalents/g)) | Concentration of radioactivity in Urinary bladder contents [3]: 11.90 μg equivalents/g | Concentration of radioactivity in Urinary bladder wall [3]: BLQ (Below lower limit of accurate quantification (<0.36 μg equivalents/g))

Source: patent publication US20260151518A1, “LEUKOCYTE-SPECIFIC CELL PENETRATING MOLECULES” (Amytrx Therapeutics, Inc., priority 2021, published 2026)
